Laboratory results from US4361703A, “Para-amino(or nitro)phenyl N-acetylaminothioalkanoates” (priority 1977, dated 1982).
Like-named read-outs stand apart in the source and are kept apart here.

Key:
[1] = test system: yeast-inflamed hind-paw pain-threshold; assay: Analgesic activity, Randall-Selitto test in rats; format: in vivo, female Charles River rats
Method: (C)--Investigation of Analgesic Activity in Rats
A control group received only the gum tragacanth vehicle.
In order to evaluate the effect of the treatment upon pain-thresholds, pressure was applied both to the injected hind-paw and to the other non-injected hind-paw. The pain-threshold was noted as the pressure at which the rat flinched, measured using an Ugo Basile "Analgesimeter" for both hind-paws of each rat at intervals of 1 hour, 3 hours, 5 hours and 22 hours after the administration, and expressed as the percentage of the pain-threshold pressure for the injected (and thus inflamed) hind-paw as against the non-injected (and thus healthy) hind-paw.

in vivo = conditions: mouse, in vivo, po
Method: (E)--Investigation of Acute Oral Toxicity in Mice
Charles River (CD-1 COBS) albino mice, 20-22 g in weight, were kept for some days in an air-conditioned animal house and fed with a standard diet (sterile VAR granules). They were fasted overnight before experiment, with water ad libitum. 15 Male mice and 15 female mice were used for each experiment.
N-Acetyl-para-aminophenol (NAPA) and N-acetyl-para-aminophenyl N'-acetyl-D,L-methionate (Compound A) were then administered to the mice, orally, as a suspension (shaken continuously with an electromagnetic agitator) in 5% gum arabic at a volume of 0.02 ml/g, either individually or in variously proportioned mixtures and at different dose levels, as shown in Table VII below.
A control group received only the 5% gum arabic vehicle.

[2] = Acute oral toxicity in rats; format: in vivo; conditions: rat, in vivo; for mortality at 144 h / mortality at 48 h / mortality at 72 h / mortality at 96 h / mortality at 120 h / mortality at 168 h / mortality at 24 h: po; for mortality at 144 h: 6 Days
Method: (§1) (F)--Investigation of Acute Oral Toxicity in Rats
(§2) The investigation was carried out upon groups of 10 male and 10 female albino rats (Charles River CD-1 COBS) of 80-100 g body weight. […] Before the experiment they were fasted overnight, with water ad libitum. NAPA and Compound A were then administered orally by oesophageal intubation as suspensions (continuously shaken with an electromagnetic agitator) in 1% gum arabic at a volume of 2 ml/100 g body weight, and at dose levels of 1, 2, 4 and 8 g/kg. A control group received orally, under the same experimental conditions, merely 2 ml/100 g of the suspension vehicle. The rats were then kept under observation during seven days, while their behaviour patterns were observed and the mortality recorded

[3] = test system: albino rats (Charles River CD-1 COBS); assay: Acute oral toxicity in rats; format: in vivo
Method: as §1, §2

[4] = mouse, in vivo, po
Method: (A)--Investigation of Serum Concentrations in Mice
36 Charles River COBS mice (18 males and 18 females) weighing 30 g each were deprived of food for 16 hours before the trial but were given their usual drinking water. Three groups, each containing 6 males and 6 females, received a dosage of 1 ml/100 g body weight per mouse, orally by stomach tube, of a suspension in 1% gum tragacanth of respectively:
Group X: 500 mg/kg of N-acetyl-para-aminophenol
A blood sample was taken by throat-slitting from one male and one female from each Group at each study time, i.e. 1/2, 1, 2, 4 and 24 hours after the oral administration.
At times 1/2, 1, 2 and 4 hours, each serum sample was divided into three 0.1 ml trial samples for the following three determinations:

[5] = 1000 mg/kg, 1 g/kg oral, 10 F, read-out: Percentage Mortality
[6] = 1000 mg/kg, 1 g/kg oral, 10 M, read-out: Percentage Mortality
[7] = 1000 mg/kg, 1 g/kg oral, M & F, read-out: Percentage Mortality
[8] = 2000 mg/kg, 2 g/kg oral, 10 F, read-out: Percentage Mortality
[9] = 2000 mg/kg, 2 g/kg oral, 10 M, read-out: Percentage Mortality
[10] = 2000 mg/kg, 2 g/kg oral, M & F, read-out: Percentage Mortality
[11] = 4000 mg/kg, 4 g/kg oral, 10 F, read-out: Percentage Mortality
[12] = 4000 mg/kg, 4 g/kg oral, 10 M, read-out: Percentage Mortality
[13] = 4000 mg/kg, 4 g/kg oral, M & F, read-out: Percentage Mortality
[14] = 4000 mg/kg, Percentage Mortality
[15] = 8000 mg/kg, 8 g/kg oral, 10 F, read-out: Percentage Mortality
[16] = 8000 mg/kg, 8 g/kg oral, 10 M, read-out: Percentage Mortality
[17] = 8000 mg/kg, 8 g/kg oral, M & F, read-out: Percentage Mortality
[18] = 8000 mg/kg, Percentage Mortality

SMILES: CC(=O)Nc1ccc(O)cc1 [NAPA, N-acetyl-para-aminophenol]
- Percentage Pain-Threshold (injected vs non-injected paw) ([1]; 1 millimole/kg oral (NAPA 151, A 324 mg/kg), 1 hr. (3.5 hrs. from yeast)): 45 ± 3.5 Percentage
- Percentage Pain-Threshold (injected vs non-injected paw) ([1]; 1 millimole/kg oral (NAPA 151, A 324 mg/kg), 3 hrs. (5.5 hrs. from yeast)): 48 ± 4.1 Percentage
- Percentage Pain-Threshold (injected vs non-injected paw) ([1]; 1 millimole/kg oral (NAPA 151, A 324 mg/kg), 5 hrs. (7.5 hrs. from yeast)): 47 ± 1.7 Percentage
- Percentage Pain-Threshold (injected vs non-injected paw) ([1]; 1 millimole/kg oral (NAPA 151, A 324 mg/kg), 22 hrs. (24.5 hrs. from yeast)): 43 ± 3.4 Percentage
- Percentage Pain-Threshold (injected vs non-injected paw) ([1]; 2 millimoles/kg oral (NAPA 302, A 648 mg/kg), 1 hr. (3.5 hrs. from yeast)): 50 ± 4.2 Percentage
- Percentage Pain-Threshold (injected vs non-injected paw) ([1]; 2 millimoles/kg oral (NAPA 302, A 648 mg/kg), 3 hrs. (5.5 hrs. from yeast)): 54 ± 4.0 Percentage
- Percentage Pain-Threshold (injected vs non-injected paw) ([1]; 2 millimoles/kg oral (NAPA 302, A 648 mg/kg), 5 hrs. (7.5 hrs. from yeast)): 53 ±3.9 Percentage
- Percentage Pain-Threshold (injected vs non-injected paw) ([1]; 2 millimoles/kg oral (NAPA 302, A 648 mg/kg), 22 hrs. (24.5 hrs. from yeast)): 54 ± 4.7 Percentage
- P of pain-threshold (t-test versus control) ([1]; 2 millimoles/kg oral, 3 hrs.): < 0.05
- LD50 at 24 h (in vivo): 730 ± 65 mg/kg
- LD50 at 168 h (in vivo): 690 ± 65 mg/kg
- mortality at 144 h [2, 5]: 0%
- mortality at 48 h [2, 5]: 0%
- mortality at 72 h ([2]; 1000 mg/kg, 1 g/kg oral, 10 M, 3 Days, read-out: Percentage Mortality): 10%
- mortality at 96 h ([2]; 1000 mg/kg, 1 g/kg oral, 10 M, 4 Days, read-out: Percentage Mortality): 10%
- mortality at 120 h ([2]; 1000 mg/kg, 1 g/kg oral, 10 M, 5 Days, read-out: Percentage Mortality): 10%
- mortality at 144 h [2, 6]: 10%
- mortality at 168 h ([2]; 1000 mg/kg, 1 g/kg oral, 10 M, 7 Days, read-out: Percentage Mortality): 10%
- mortality at 24 h ([2]; 1000 mg/kg, 1 g/kg oral, 10 M, 24 Hours, read-out: Percentage Mortality): 10%
- mortality at 48 h [2, 6]: 10%
- mortality at 120 h ([2]; 1000 mg/kg, 1 g/kg oral, M & F, 5 Days, read-out: Percentage Mortality): 5%
- mortality at 144 h [2, 7]: 5%
- mortality at 48 h [2, 7]: 5%
- mortality at 120 h ([2]; 1000 mg/kg, Percentage Mortality): 0%
- mortality at 144 h [2, 8]: 0%
- mortality at 48 h [2, 8]: 0%
- mortality at 72 h ([2]; 2000 mg/kg, 2 g/kg oral, 10 M, 3 Days, read-out: Percentage Mortality): 10%
- mortality at 96 h ([2]; 2000 mg/kg, 2 g/kg oral, 10 M, 4 Days, read-out: Percentage Mortality): 10%
- mortality at 120 h ([2]; 2000 mg/kg, 2 g/kg oral, 10 M, 5 Days, read-out: Percentage Mortality): 10%
- mortality at 144 h [2, 9]: 10%
- mortality at 168 h ([2]; 2000 mg/kg, 2 g/kg oral, 10 M, 7 Days, read-out: Percentage Mortality): 10%
- mortality at 24 h ([2]; 2000 mg/kg, 2 g/kg oral, 10 M, 24 Hours, read-out: Percentage Mortality): 10%
- mortality at 48 h [2, 9]: 10%
- mortality at 120 h ([2]; 2000 mg/kg, 2 g/kg oral, M & F, 5 Days, read-out: Percentage Mortality): 5%
- mortality at 144 h [2, 10]: 5%
- mortality at 48 h [2, 10]: 5%
- mortality at 120 h ([2]; 2000 mg/kg, Percentage Mortality): 0%
- mortality at 144 h [2, 11]: 70%
- mortality at 168 h ([2]; 4000 mg/kg, 4 g/kg oral, 10 F, 7 Days, read-out: Percentage Mortality): 70%
- mortality at 48 h [2, 11]: 70%
- mortality at 72 h ([2]; 4000 mg/kg, 4 g/kg oral, 10 M, 3 Days, read-out: Percentage Mortality): 90%
- mortality at 96 h ([2]; 4000 mg/kg, 4 g/kg oral, 10 M, 4 Days, read-out: Percentage Mortality): 90%
- mortality at 120 h ([2]; 4000 mg/kg, 4 g/kg oral, 10 M, 5 Days, read-out: Percentage Mortality): 90%
- mortality at 144 h [2, 12]: 90%
- mortality at 168 h ([2]; 4000 mg/kg, 4 g/kg oral, 10 M, 7 Days, read-out: Percentage Mortality): 90%
- mortality at 24 h ([2]; 4000 mg/kg, 4 g/kg oral, 10 M, 24 Hours, read-out: Percentage Mortality): 90%
- mortality at 48 h [2, 12]: 90%
- mortality at 144 h [2, 13]: 80%
- mortality at 48 h [2, 13]: 80%
- mortality at 24 h [2, 14]: 70%
- mortality at 72 h [2, 14]: 70%
- mortality at 96 h [2, 14]: 70%
- mortality at 120 h [2, 14]: 70%
- mortality at 168 h [2, 14]: 80%
- mortality at 144 h [2, 15]: 100%
- mortality at 48 h [2, 15]: 100%
- mortality at 72 h ([2]; 8000 mg/kg, 8 g/kg oral, 10 M, 3 Days, read-out: Percentage Mortality): 100%
- mortality at 96 h ([2]; 8000 mg/kg, 8 g/kg oral, 10 M, 4 Days, read-out: Percentage Mortality): 100%
- mortality at 120 h ([2]; 8000 mg/kg, 8 g/kg oral, 10 M, 5 Days, read-out: Percentage Mortality): 100%
- mortality at 144 h [2, 16]: 100%
- mortality at 168 h ([2]; 8000 mg/kg, 8 g/kg oral, 10 M, 7 Days, read-out: Percentage Mortality): 100%
- mortality at 24 h ([2]; 8000 mg/kg, 8 g/kg oral, 10 M, 24 Hours, read-out: Percentage Mortality): 90%
- mortality at 48 h [2, 16]: 100%
- mortality at 144 h [2, 17]: 100%
- mortality at 48 h [2, 17]: 100%
- mortality at 24 h [2, 18]: 100%
- mortality at 72 h [2, 18]: 100%
- mortality at 96 h [2, 18]: 100%
- mortality at 120 h [2, 18]: 100%
- mortality at 168 h [2, 18]: 100%
- LD50 at 24 h ([2]; oral, rats, Miller and Tainter method): 3100 ± 500 mg/kg
- LD50 at 168 h ([2]; oral, rats, Miller and Tainter method, read-out: LD50 (7 days)): 2850 ± 400 mg/kg
- time of first deaths ([3]; 8 g/kg oral, rats): eight hours after the administration at 8 g/kg dose level
- mortality (in words) ([3]; oral, rats, 1-8 g/kg): Heavy mortality
- Percentage Mortality ([3]; rat, in vivo, po, 8000 mg/kg, 24 h): 95 Percentage
- serum "total" or "enzymatic" NAPA profile [4]: slowly decreases but remains high up to 4 hours after oral administration
